Laboratory results published in US4383113A, “Agricultural sulfonamides” (E. I. Du Pont de Nemours and Company, priority 1981, dated 1983).

Assays:
Parameters in all cases: key: 0 = no effect, 10 = maximum effect; letter = response symbol
morningglory [1] = experiment: Test A post-emergence; format: in vivo, Ipomoea spp.; conditions: 0.4 kg/ha
Summary of the method: (§1)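 Seeds and tubers were treated preemergence in a growth medium with compound in a nonphytotoxic solvent, against untreated controls; emerged plants such as two-leaf barnyardgrass and five-leaf cotton were sprayed postemergence, against solvent-sprayed controls. After sixteen days in a greenhouse, response was rated visually from 0 to 10.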

cassia [2] = experiment: Test A post-emergence; format: in vivo, Cassia tora; conditions: 0.4 kg/ha
From the text: (§2) The activity of these compounds was discovered in a number of greenhouse and field tests. The ratings are based on a numerical scale extending from 0=no effect, to 10=maximum effect. The accompanying descriptive symbols have the following meanings:
(§3) Seeds of crabgrass (Digitaria spp.), barnyardgrass (Echinochloa crusgalli), wild oats (Avena fatua), cassia (Cassia tora), morningglory (Ipomoea spp.), cocklebur (Xanthium spp.), sorghum, corn, soybean, rice, wheat and nutsedge tubers (Cyperus rotundus) were planted in a growth medium and treated preemergence with a nonphytotoxic solvent solution of the compounds of Table XII. Other batches of seeds and tubers for all of the foregoing weed and crop plants were planted at the same time as controls. The control plantings were untreated; i.e., neither any compound nor any solvent was applied. At the same time, cotton having five leaves (including cotyledonary ones), bush beans with the third trifoliate leaf expanding, crabgrass with two leaves, barnyardgrass with two leaves, wild oats with two leaves, cassia with three leaves (including cotyledonary ones), morningglory with four leaves (including the cotyledonary ones), cocklebur with four leaves (including the cotyledonary ones), sorghum with four leaves, corn with four leaves, soybean with two cotyledonary leaves, rice with three leaves, wheat with one leaf, and nutsedge with three-five leaves were sprayed with a nonphytotoxic solvent solution of the compounds of Table XII. Other groups of all the same weed and crop plants were sprayed with the same nonphytotoxic solvent so as to provide control plants. Preemergence and postemergence treated plants and controls were maintained in a greenhouse for sixteen days, then all treated plants were compared with their respective controls and rated visually for response to treatment.

crabgrass [3] = experiment: Test A post-emergence; format: in vivo, Digitaria spp.; conditions: 0.4 kg/ha
From the text: as §2, §3

barnyardgrass [4] = experiment: Test A post-emergence; format: in vivo, Echinochloa crusgalli; conditions: 0.4 kg/ha
Summary of the method: as §1

wild oats [5] = experiment: Test A post-emergence; format: in vivo, Avena fatua; conditions: 0.4 kg/ha
Summary of the method: as §1

cotton = experiment: Test A post-emergence; format: in vivo; conditions: 0.4 kg/ha
Summary of the method: as §1

soybean [6] = experiment: Test A post-emergence; format: in vivo; conditions: 0.4 kg/ha
Summary of the method: as §1

wheat [7] = experiment: Test A post-emergence; format: in vivo; conditions: 0.4 kg/ha
Summary of the method: as §1

bush bean = experiment: Test A post-emergence; format: in vivo, bush beans; conditions: 0.4 kg/ha
cocklebur [8] = experiment: Test A post-emergence; format: in vivo, Xanthium spp.; conditions: 0.4 kg/ha
From the text: as §2, §3

corn [9] = experiment: Test A post-emergence; format: in vivo; conditions: 0.4 kg/ha
Summary of the method: as §1

nutsedge = experiment: Test A post-emergence; format: in vivo, Cyperus rotundus; conditions: 0.4 kg/ha
Summary of the method: as §1

sorghum [10] = experiment: Test A post-emergence; format: in vivo; conditions: 0.4 kg/ha
Summary of the method: as §1

morningglory [11] = experiment: Test A pre-emergence; format: in vivo, Ipomoea spp.; conditions: 0.4 kg/ha
Summary of the method: as §1

cocklebur [12] = experiment: Test A pre-emergence; format: in vivo, Xanthium spp.
Summary of the method: as §1

crabgrass [13] = experiment: Test A pre-emergence; format: in vivo, Digitaria spp.
From the text: as §2, §3

barnyardgrass [14] = experiment: Test A pre-emergence; format: in vivo, Echinochloa crusgalli
Summary of the method: as §1

wild oats [15] = experiment: Test A pre-emergence; format: in vivo, Avena fatua
From the text: as §2, §3

corn [16] = experiment: Test A pre-emergence; format: in vivo
Summary of the method: as §1

sorghum [17] = experiment: Test A pre-emergence; format: in vivo
Summary of the method: as §1

soybean [18] = experiment: Test A pre-emergence; format: in vivo
Summary of the method: as §1

wheat [19] = experiment: Test A pre-emergence; format: in vivo
Summary of the method: as §1

cassia [20] = experiment: Test A pre-emergence; format: in vivo, Cassia tora
Summary of the method: as §1

| SMILES | response rating (morningglory [1]) | response rating (cassia [2]) | response rating (wild oats [5]) | response rating (cotton) [C] | response rating (wheat [7]) | response rating (bush bean) [C] | response rating (cocklebur [8]) [C] | response rating (corn [9]) | response rating (nutsedge) | also measured |
| --- | --- | --- | --- | --- | --- | --- | --- | --- | --- | --- |
| CCCCCCOC(=O)c1ccccc1S(=O)(=O)NC(=O)Nc1nc(C)cc(COC)n1 [drawing 471] | 2C | 1C | 0 | 2 | 0 | – | – | – | – | response rating (crabgrass [3]): 0; response rating (barnyardgrass [4]): 3C; response rating (soybean [6]): 2C |
| COc1cc(C)nc(NC(=O)NS(=O)(=O)c2ccccc2C(=O)SCc2ccccc2)n1 [drawing 475] | 10C | 9C | – | 9 | – | 9 | 9 | 9C | – | response rating (barnyardgrass [4]): 9C; response rating (soybean [6]): 8C |
| COc1cc(C)nc(NC(=O)NS(=O)(=O)c2ccccc2C(=O)OCCCl)n1 [drawing 421] | 10C | 10C | – | 9 | – | 9 | 10 | 10C | 10C | response rating (barnyardgrass [4]): 10C; response rating (sorghum [10]): 9C |
| CCOCCOC(=O)c1ccccc1S(=O)(=O)NC(=O)Nc1nc(Cl)cc(Cl)n1 [drawing 453] | 0 | 0 | 1C | 1 | 2G | – | 5 | – | 0 | response rating (crabgrass [3]): 2C |
| COc1nc(C)nc(NC(=O)NS(=O)(=O)c2ccccc2C(=O)OC2CCCCCCC2)n1 [drawing 456] | 10C | 9C | 4G | 9 | 2G | 9 | 9 | 9C | 4G | – |
| COc1nc(C)nc(NC(=O)NS(=O)(=O)c2ccccc2C(=O)OCCCl)n1 [drawing 426] | 10C | 9C | 4G | 9 | 1C | 9 | 10 | 9C | 9C | – |
| COC(=O)c1cc(Cl)ccc1S(=O)(=O)NC(=O)Nc1nc(OC)cc(OC)n1 [drawing 500] | – | – | – | – | – | – | – | – | – | response rating (morningglory [11]): 9G; response rating (cocklebur [12]; 0.4 kg/ha): 9G; response rating (crabgrass [13]; 0.4 kg/ha): 5G; response rating (barnyardgrass [14]; 0.4 kg/ha): 9H; response rating (wild oats [15]; 0.4 kg/ha): 9G; response rating (corn [16]; 0.4 kg/ha): 9H; response rating (sorghum [17]; 0.4 kg/ha): 9H; response rating (soybean [18]; 0.4 kg/ha): 9H; response rating (wheat [19]; 0.4 kg/ha): 3G |
| COC(=O)c1ccccc1S(=O)(=O)NC(=O)Nc1nc(OC)nc(OCC(F)(F)F)n1 [drawing 473] | 10C | 10C | – | 9 | – | 9 | 10 | 10C | – | response rating (crabgrass [3]): 3G |
| C=CCCC(C)OC(=O)c1ccccc1S(=O)(=O)NC(=O)Nc1nc(C)nc(OC)n1 (stereo not shown) [drawing 455] | 10C | 9C | – | 9 | – | 9 | 10 | 9C | 7G | response rating (crabgrass [3]): 9C; response rating (soybean [6]): 9C |
| COC(=O)c1ccccc1S(=O)(=O)NC(=O)Nc1nc(C)cc(OC)n1 [drawing 480] | – | – | – | – | – | – | – | – | – | response rating (morningglory [11]): 9G; response rating (cocklebur [12]; 0.4 kg/ha): 9G; response rating (cassia [20]; 0.4 kg/ha): 9G; response rating (crabgrass [13]; 0.4 kg/ha): 9H; response rating (barnyardgrass [14]; 0.4 kg/ha): 9H; response rating (wild oats [15]; 0.4 kg/ha): 9H; response rating (corn [16]; 0.4 kg/ha): 10H; response rating (sorghum [17]; 0.4 kg/ha): 9H; response rating (soybean [18]; 0.4 kg/ha): 9H; response rating (wheat [19]; 0.4 kg/ha): 9H |
| COc1cc(C)nc(NC(=O)NS(=O)(=O)c2ccccc2C(=O)OC(C)CCl)n1 (stereo not shown) [drawing 478] | 10C | 10C | 8C | 9 | 8C | – | 9 | 9C | 9C | response rating (crabgrass [3]): 9C; response rating (barnyardgrass [4]): 10C; response rating (sorghum [10]): 9C |
| CCCCOC(=O)c1ccccc1S(=O)(=O)NC(=O)Nc1nc(OC)cc(OC)n1 [drawing 506] | – | – | – | – | – | – | – | – | – | response rating (morningglory [11]): 9G; response rating (cocklebur [12]; 0.4 kg/ha): 9G; response rating (cocklebur [12]; 2 kg/ha): 9G; response rating (cassia [20]; 0.4 kg/ha): 9G; response rating (cassia [20]; 2 kg/ha): 9C; response rating (crabgrass [13]; 0.4 kg/ha): 8G; response rating (crabgrass [13]; 2 kg/ha): 7G; response rating (barnyardgrass [14]; 0.4 kg/ha): 9H; response rating (barnyardgrass [14]; 2 kg/ha): 9H; response rating (wild oats [15]; 0.4 kg/ha): 7G; response rating (wild oats [15]; 2 kg/ha): 8G; response rating (corn [16]; 2 kg/ha): 9G; response rating (sorghum [17]; 2 kg/ha): 9H; response rating (soybean [18]; 0.4 kg/ha): 7H; response rating (soybean [18]; 2 kg/ha): 9H; response rating (wheat [19]; 0.4 kg/ha): 9G; response rating (wheat [19]; 2 kg/ha): 9G |
| CCCCOC(=O)c1ccccc1S(=O)(=O)NC(=O)Nc1nc(C)cc(OC)n1 [drawing 507] | – | – | – | – | – | – | – | – | – | response rating (morningglory [11]): 9G; response rating (cocklebur [12]; 0.4 kg/ha): 9G; response rating (cocklebur [12]; 2 kg/ha): 9G; response rating (cassia [20]; 0.4 kg/ha): 9G; response rating (crabgrass [13]; 0.4 kg/ha): 7G; response rating (barnyardgrass [14]; 0.4 kg/ha): 9H; response rating (barnyardgrass [14]; 2 kg/ha): 9H; response rating (corn [16]; 0.4 kg/ha): 9G; response rating (corn [16]; 2 kg/ha): 9G; response rating (sorghum [17]; 0.4 kg/ha): 9H; response rating (sorghum [17]; 2 kg/ha): 9H; response rating (soybean [18]; 0.4 kg/ha): 9H; response rating (soybean [18]; 2 kg/ha): 9H; response rating (wheat [19]; 0.4 kg/ha): 9H; response rating (wheat [19]; 2 kg/ha): 9H |
| COC(=O)c1ccccc1S(=O)(=O)NC(=O)Nc1nc(OC)cc(OC)n1 [drawing 481] | – | – | – | – | – | – | – | – | – | response rating (morningglory [11]): 9G; response rating (cocklebur [12]; 0.4 kg/ha): 9G; response rating (cassia [20]; 0.4 kg/ha): 9G; response rating (crabgrass [13]; 0.4 kg/ha): 9H; response rating (barnyardgrass [14]; 0.4 kg/ha): 9H; response rating (wild oats [15]; 0.4 kg/ha): 9H; response rating (corn [16]; 0.4 kg/ha): 9H; response rating (sorghum [17]; 0.4 kg/ha): 9H; response rating (wheat [19]; 0.4 kg/ha): 9H |
| COc1nc(C)nc(NC(=O)NS(=O)(=O)c2ccccc2C(=O)OC2CCCCC2C)n1 (stereo not shown) | 10C | 9C | – | 9 | – | 9 | 9 | 10C | – | – |
| COC(=O)c1cc(Cl)ccc1S(=O)(=O)NC(=O)Nc1nc(OC)cc(OC)n1 [drawing 433] | 10C | 9C | 9G | 9 | – | 9 | 10 | 6H | 10C | – |
| COc1nc(C)nc(NC(=O)NS(=O)(=O)c2ccccc2C(=O)OC(C)C)n1 [drawing 425] | 10C | 10C | – | 9 | 2C | 9 | 10 | 10C | 10C | – |
